Data published in article PMC10708030, “Cytotoxic Natural Products Isolated from Cryptogramma crispa (L.) R. Br” (Molecules, 2023).

Columns and labels:
[1] = tested on: normal rat kidney epithelial cells (NRK); experiment: Cytotoxicity, WST-1 metabolic activity, NRK cells; type: cell-based; settings: Epithelial cell, 72 h incubation, metabolic activity (WST-1), three experiments
Experimental: (§1) Stock solutions were prepared by dissolving pure compounds to a final concentration of 20 mM in DMSO. The normal rat kidney epithelial cells (NRK, ATCC no.: CRL-6509) and rat cardiomyoblasts (H9c2, ATCC no.: CRL-1446) were cultured in DMEM medium supplemented with 10% foetal bovine serum (FBS, Invitrogen, Carlsbad, CA, USA). When the cells reached 80% confluence, they were detached in a mild trypsin treatment (0.33 mg/mL trypsin for 5 min at 37 °C), centrifuged (160× g, 4 min), and reseeded in fresh medium to 25% confluence.
(§2) All media were supplemented with 1 IU/mL penicillin and 1 mg/mL streptomycin (both from Cambrex, Liège, Belgium) and incubated in a humidified atmosphere (37 °C, 5% CO2). […]
(§3) […] The plates were further incubated for two hours before the signal was recorded at 450 nm with a reference at 620 nm. […]
(§4) After the recording of WST-1, the cells were then fixed with 2% buffered formaldehyde (pH 7.4) with 0.01 mg/mL of the DNA-specific fluorescent dye, Hoechst 33342. The presence of dead (apoptotic or necrotic) cells was verified via differential interference contrast and fluorescence microscopy as previously described by Oftedal et al. and Myhren et al..
(§5) EC50 values were determined using four-parameter regression analysis described by Viktorsson et al. using SigmaPlot v14 software (Systat Software Inc., San Jose, CA, USA).

[2] = tested on: acute myeloid leukaemia cell line MOLM13; experiment: Cytotoxicity, WST-1 metabolic activity, MOLM13 cells; type: cell-based; settings: Homo sapiens, MOLM-13; 72 h incubation, metabolic activity (WST-1), 3 independent experiments
Experimental: as §1
The AML cell line MOLM13 (DSMZ no.: ACC554 [24]) was cultured in RPMI-1640 medium enriched with 10% FBS 8mM L-glutamine (Sigma Life Science, London, UK). […]
as §3, §4, §5

[3] = tested on: rat cardiomyoblasts (H9c2); experiment: Cytotoxicity, WST-1 metabolic activity, H9c2 cells; type: cell-based; settings: 72 h incubation, metabolic activity (WST-1), three experiments
Experimental: as §1, §2, §3, §4, §5

[4] = tested on: myeloid leukaemia HL 60 cells; settings: cited from earlier work
[5] = cited from earlier work

## Cc1cc2c(c(C)c1CCOC1OC(CO)C(O)C(O)C1O)C(=O)C(C)(C)C2OC(=O)CC(=O)O [Compound 14, 3(R)-O-malonyl pteroside D]
[1]
  EC50: > 200 µM
[2]
  EC50: 197.88 ± 0.18 µM
[3]
  EC50: > 200 µM

## CC1=C2C(=CC(C)(C)[C@@H]2O)C(=O)[C@](C)(O)C12CC2 [illudin M]
[4]
  cytotoxic effects against HL 60 cells: 6 to 100 nM
[5]
  antibacterial activity: significant antibacterial activity

## CC1=C2C(=C[C@@](C)(CO)[C@@H]2O)C(=O)[C@](C)(O)C12CC2 [illudin S]
[5]
  antibacterial activity: significant antibacterial activity
